Measurements: ChEMBL document CHEMBL5260810, “Inhibition of bromodomain-containing protein 9 for the prevention of epigenetically-defined drug resistance” (Bioorg Med Chem Lett, 2017)

Legend:
[1] = Cytotoxicity against human CL-34 cells measured after 8 days; format: functional, cell-based; conditions: CL-34, 192 h
MeWo = assay: Cytotoxicity against human MeWo cells measured after 8 days; format: functional, cell-based; conditions: 192 h
COLO-320-HSR = assay: Cytotoxicity against human COLO 320HSR cells measured after 8 days; format: functional, cell-based; conditions: 192 h
143B = assay: Cytotoxicity against human 143B cells measured after 8 days; format: functional, cell-based; conditions: 192 h
[2] = Cytotoxicity against human OVISE cells measured after 8 days; format: functional, cell-based; conditions: 192 h
MCF-10A = assay: Cytotoxicity against human MCF-10A CDH1-/- cells measured after 8 days; format: functional, cell-based; conditions: 192 h
[3] = Cytotoxicity against human RERF-LC-KJ cells measured after 8 days; format: functional, cell-based; conditions: 192 h
[4] = Cytotoxicity against human HCC1576 cells measured after 8 days; format: functional, cell-based; conditions: HCC1576, 192 h
SK-OV-3 = assay: Cytotoxicity against human SK-OV-3 cells measured after 8 days; format: functional, cell-based; conditions: SK-OV-3, 192 h
SK-MEL3 = assay: Cytotoxicity against human SK-MEL3 cells measured after 8 days; format: functional, cell-based; conditions: SK-MEL3, 192 h
[5] = Cytotoxicity against human T.T cells measured after 8 days; format: functional, cell-based; conditions: TT, 192 h
[6] = Cytotoxicity against human KCI-MOH1 cells measured after 8 days; format: functional, cell-based; conditions: KCI-MOH1, 192 h
A2058 = assay: Cytotoxicity against human A2058 cells measured after 8 days; format: functional, cell-based; conditions: A2058, 192 h
[7] = Cytotoxicity against human OVSAHO cells measured after 8 days; format: functional, cell-based; conditions: 192 h
NB69 = assay: Cytotoxicity against human NB69 cells measured after 8 days; format: functional, cell-based; conditions: NB69, 192 h
[8] = Cytotoxicity against human HEC-251 cells measured after 8 days; format: functional, cell-based; conditions: HEC-251, 192 h
LN-229 = assay: Cytotoxicity against human LN-229 cells measured after 8 days; format: functional, cell-based; conditions: LN-229, 192 h
MHH-ES-1 = assay: Cytotoxicity against human MHH-ES-1 cells measured after 8 days; format: functional, cell-based; conditions: MHH-ES-1, 192 h
PC-9 = assay: Cytotoxicity against human PC-9 cells assessed as decrease in drug tolerant population supplemented with fresh medium containing compound every 3 days for 9 days in presence of erlotinib by Beckman Coulter counting method; format: functional, cell-based; conditions: time 9.0 day
[9] = Cytotoxicity against human RKN cells measured after 8 days; format: functional, cell-based; conditions: 192 h
HEC-1-A = assay: Cytotoxicity against human HEC-1-A cells measured after 8 days; format: functional, cell-based; conditions: 192 h
[10] = Cytotoxicity against human Kelly cells measured after 8 days; format: functional, cell-based; conditions: 192 h
[11] = Cytotoxicity against human CoCM-1 cells measured after 8 days; format: functional, cell-based; conditions: CoCM-1, 192 h
[12] = Cytotoxicity against human HEC-88nu cells measured after 8 days; format: functional, cell-based; conditions: 192 h
[13] = Cytotoxicity against human NCE-G 61 cells measured after 8 days; format: functional, cell-based; conditions: NCE-G 61, 192 h
HCC1187 = assay: Cytotoxicity against human HCC1187 cells measured after 8 days; format: functional, cell-based; conditions: HCC1187, 192 h
[14] = Cytotoxicity against human KLM-1 cells measured after 8 days; format: functional, cell-based; conditions: KLM1, 192 h
SW780 = assay: Cytotoxicity against human SW780 cells measured after 8 days; format: functional, cell-based; conditions: SW780, 192 h
KYSE-270 = assay: Cytotoxicity against human KYSE-270 cells measured after 8 days; format: functional, cell-based; conditions: KYSE-270, 192 h
COR-L279 = assay: Cytotoxicity against human COR-L279 cells measured after 8 days; format: functional, cell-based; conditions: COR-L279, 192 h
[15] = Cytotoxicity against human PE/CA-PJ15 cells measured after 8 days; format: functional, cell-based; conditions: PE/CA-PJ15, 192 h
HGC-27 = assay: Cytotoxicity against human HGC-27 cells measured after 8 days; format: functional, cell-based; conditions: HGC-27, 192 h
[16] = Cytotoxicity against human NCI-H2804 cells measured after 8 days; format: functional, cell-based; conditions: NCI-H2804, 192 h
MOLM-13 = assay: Cytotoxicity against human MOLM-13 cells measured after 8 days; format: functional, cell-based; conditions: MOLM-13, 192 h
[17] = Cytotoxicity against human MCAS cells measured after 8 days; format: functional, cell-based; conditions: 192 h
[18] = Cytotoxicity against human UM-RC-7 cells measured after 8 days; format: functional, cell-based; conditions: UM-RC-7, 192 h
[19] = Cytotoxicity against human Hs 38.T cells measured after 8 days; format: functional, cell-based; conditions: 192 h
TYK-nu = assay: Cytotoxicity against human TYK-nu cells measured after 8 days; format: functional, cell-based; conditions: 192 h
[20] = Cytotoxicity against human HLF cells measured after 8 days; format: functional, cell-based; conditions: 192 h
[21] = Cytotoxicity against human HCC1263 cells measured after 8 days; format: functional, cell-based; conditions: HCC1263, 192 h
[22] = Cytotoxicity against human NCE-G 112 cells measured after 8 days; format: functional, cell-based; conditions: NCE-G 112, 192 h
[23] = Cytotoxicity against human Panc 02.03 cells measured after 8 days; format: functional, cell-based; conditions: Panc 02.03, 192 h
[24] = Cytotoxicity against human PK-45P cells measured after 8 days; format: functional, cell-based; conditions: 192 h
COLO 201 = assay: Cytotoxicity against human COLO201 cells measured after 8 days; format: functional, cell-based; conditions: COLO 201, 192 h
KP-N-YN = assay: Cytotoxicity against human KP-N-YN cells measured after 8 days; format: functional, cell-based; conditions: 192 h
[25] = Cytotoxicity against human BT-B cells measured after 8 days; format: functional, cell-based; conditions: 192 h
[26] = Cytotoxicity against mouse TRAMP-C1 cells measured after 8 days; format: functional, cell-based; conditions: TRAMP-C1, 192 h
LS174T = assay: Cytotoxicity against human LS174T cells measured after 8 days; format: functional, cell-based; conditions: 192 h
C3A = assay: Cytotoxicity against human C3A cells measured after 8 days; format: functional, cell-based; conditions: 192 h
BXPC-3 = assay: Cytotoxicity against human BXPC-3 cells measured after 8 days; format: functional, cell-based; conditions: BXPC-3, 192 h
IPC-298 = assay: Cytotoxicity against human IPC-298 cells measured after 8 days; format: functional, cell-based; conditions: IPC-298, 192 h
B16-F10 = assay: Cytotoxicity against mouse B16-F10 cells measured after 8 days; format: functional, cell-based; conditions: B16-F10, 192 h
[27] = Cytotoxicity against human GCH-nu-YS cells measured after 8 days; format: functional, cell-based; conditions: 192 h
[28] = Cytotoxicity against human COLO 818 cells measured after 8 days; format: functional, cell-based; conditions: COLO 818, 192 h
PSN1 = assay: Cytotoxicity against human PSN1 cells measured after 8 days; format: functional, cell-based; conditions: PSN1, 192 h
A 172 = assay: Cytotoxicity against human A-172 cells measured after 8 days; format: functional, cell-based; conditions: A 172, 192 h
WM 266-4 = assay: Cytotoxicity against human WM266-4 cells measured after 8 days; format: functional, cell-based; conditions: WM 266-4, 192 h
[29] = Cytotoxicity against human HuH-1 cells measured after 8 days; format: functional, cell-based; conditions: HuH-1, 192 h
KYSE-30 = assay: Cytotoxicity against human KYSE-30 cells measured after 8 days; format: functional, cell-based; conditions: KYSE-30, 192 h
[30] = Cytotoxicity against human OVCA432 cells measured after 8 days; format: functional, cell-based; conditions: OVCA432, 192 h
[31] = Cytotoxicity against human COLO 849 cells measured after 8 days; format: functional, cell-based; conditions: COLO 849, 192 h
Homo sapiens = organism: Homo sapiens; assay: Inhibition of human N muscle type receptor at 10 uM relative to control
OCI-AML-3 = assay: Cytotoxicity against human OCI-AML-3 cells measured after 8 days; format: functional, cell-based; conditions: OCI-AML-3, 192 h

C/C=C/Cn1cc(-c2ccc(C(=O)N3CCOCC3)cc2)c2cc[nH]c2c1=O
-1%: inhibition (Homo sapiens)
18.6 µM: IC50 (IPC-298)
active: Activity (PC-9) Dose-Dependent Effect
19.7 µM: IC50 [26]
11.3 µM: IC50 (OCI-AML-3)
16.9 µM: IC50 (HGC-27)
20 µM: IC50 [1] | IC50 (MeWo) | IC50 (COLO-320-HSR) | IC50 (143B) | IC50 [2] | IC50 (MCF-10A) | IC50 [3] | IC50 [4] | IC50 (SK-OV-3) | IC50 (SK-MEL3) | IC50 [5] | IC50 [6] | IC50 (A2058) | IC50 [7] | IC50 (NB69) | IC50 [8] | IC50 (LN-229) | IC50 (MHH-ES-1) | IC50 [9] | IC50 (HEC-1-A) | IC50 [10] | IC50 [11] | IC50 [12] | IC50 [13] | IC50 (HCC1187) | IC50 [14] | IC50 (SW780) | IC50 (KYSE-270) | IC50 (COR-L279) | IC50 [15] | IC50 [16] | IC50 [17] | IC50 [18] | IC50 [19] | IC50 (TYK-nu) | IC50 [20] | IC50 [21] | IC50 [22] | IC50 [23] | IC50 [24] | IC50 (COLO 201) | IC50 (KP-N-YN) | IC50 [25] | IC50 (LS174T) | IC50 (C3A) | IC50 (BXPC-3) | IC50 (B16-F10) | IC50 [27] | IC50 [28] | IC50 (PSN1) | IC50 (A 172) | IC50 (WM 266-4) | IC50 [29] | IC50 (KYSE-30) | IC50 [30] | IC50 [31]
9.33 µM: IC50 (MOLM-13)

C/C=C/Cn1cc(-c2ccc(C(C)(C)O)cc2OC)c2cc[nH]c2c1=O
17.2 µM: IC50 (143B)
-7%: inhibition (Homo sapiens)
active: Activity (PC-9) Dose-Dependent Effect
6.19 µM: IC50 (MOLM-13)
20 µM: IC50 [1] | IC50 (MeWo) | IC50 (COLO-320-HSR) | IC50 [2] | IC50 (MCF-10A) | IC50 [3] | IC50 [4] | IC50 (SK-OV-3) | IC50 (SK-MEL3) | IC50 [5] | IC50 [6] | IC50 (A2058) | IC50 [7] | IC50 (NB69) | IC50 [8] | IC50 (LN-229) | IC50 (MHH-ES-1) | IC50 [9] | IC50 (HEC-1-A) | IC50 [10] | IC50 [11] | IC50 [12] | IC50 [13] | IC50 (HCC1187) | IC50 [14] | IC50 (SW780) | IC50 (KYSE-270) | IC50 (COR-L279) | IC50 [15] | IC50 [16] | IC50 [17] | IC50 [18] | IC50 [19] | IC50 (TYK-nu) | IC50 [20] | IC50 [21] | IC50 [22] | IC50 [23] | IC50 [24] | IC50 (COLO 201) | IC50 (KP-N-YN) | IC50 [25] | IC50 [26] | IC50 (LS174T) | IC50 (C3A) | IC50 (BXPC-3) | IC50 (IPC-298) | IC50 (B16-F10) | IC50 [27] | IC50 [28] | IC50 (PSN1) | IC50 (A 172) | IC50 (WM 266-4) | IC50 [29] | IC50 (KYSE-30) | IC50 [30] | IC50 [31] | IC50 (OCI-AML-3)
14.4 µM: IC50 (HGC-27)
